What was measured:
[1] = system: HCT-116 colon carcinoma; assay: Hollow fiber in vivo tumor cell cultivation model in athymic nude mice; parameters: species or system human; conditions: for Experiment #1 % T/C ± SEM / Experiment #2 % T/C ± SEM: HCT 116 hollow fibers s.c., day 7, Paclitaxel 15 mg/kg i.v. daily for 5 days, Ex. 1 45 mg/kg i.v. once; for Average % T/C: HCT 116 hollow fibers, average of experiments #1 and #2
From the text: (§1) Utilizing this model, one can measure the ability of test compounds to inhibit the growth of human tumor cells in hollow fibers growing subcutaneously (s.c.) in athymic nude mice. The histologic tumor types employed were MIP 101 colon carcinoma, HCT-116 colon carcinoma, 1A9PTX22 ovarian carcinoma, and 1A9 ovarian carcinoma.
(§2) The HCT 116 human colon tumor cell line was obtained from the American Type Culture Collection, Rockville, Md. The MIP 101 human colon tumor cell line was obtained from Dr. Robert Kramer (Bristol Meyers Squibb) and was previously described (Niles R M, Wilhelm S A, Steele G D JR, Burke B, Christensen T, Dexter D, O'Brien M J, Thomas P, Zamcheck N. Isolation and characterization of an undifferentiated human colon carcinoma cell line (MIP-101). Cancer Invest. 1987;5(6):545-52.). The 1A9 and the 1A9PTX22 ovarian tumor cell lines were obtained from Dr. Toto Fojo, Medicine Branch, Division of Clinical Sciences, National Cancer Institute, National Institutes of Health, Bethesda, Md. 20892. The 1A9 is a clone of the ovarian carcinoma cell line, A2780 (Balachandran R, ter Haar E, Welsh M J, Grant S G, Day B W. The potent microtubule-stabilizing agent (+)-discodermolide induces apoptosis in human breast carcinoma cells-preliminary comparisons to paclitaxel. Anti-Cancer Drugs 1998; 9:67-76. [Errata: Anti-Cancer Drugs 1998: 9:369-370]). The 1A9PTX22 subline was isolated as an individual clone from the 1A9 cell line in a single step selection by exposure to 5 ng/mL paclitaxel in the presence of 5 μg/mL of verapamil. […] Resistance to paclitaxel was maintained after two years of culturing in drug-free media, and was attributed to the Ala^364→Thr mutation in β-tubulin that was found in the 1A9PTX22 cell line. All cell lines were propagated and expanded in RPMI 1640 medium containing 10% heat-inactivated FBS (Life Technologies, Grand Island, N.Y.) in a tissue culture incubator (37° C., controlled, humidified atmosphere containing 5% CO2). Cell expansions were performed in T75 tissue culture flasks (Costar®, Corning, N.Y.). For hollow fiber preparations, cells were harvested at 70-90% confluency using 0.25% Trypsin-EDTA (Life Technologies, Grand Island, N.Y.).
(§3) PVDF hollow fibers (Spectrum, Gardena, Calif.) were soaked in 70% EtOH for 72 hours before use. After this step, all handling of fibers was done under a biological laminar flow hood using aseptic procedures. Individual fibers were flushed with 3 mL of ice-cold tissue culture media using a syringe equipped with a 20-gauge needle. Next, each fiber was filled with an appropriate cell suspension (1×10^6 cells/mL for the 1A9 and 1A9PTX22 cells, and 0.3×10^6 cells/mL for the HCT 116 and MIP 101 cells), and both ends of the fiber were sealed with a hot flat needle holder. The entire length of the fiber was then sealed into 1.5 cm microcapsules (further called “hollow fibers”), each containing approximately 15 μL of the appropriate cell suspension. After separation, individual hollow fibers were placed in 6 well plates (6 fibers in 5 mL media per well), and were incubated overnight at 37° C. in the tissue culture incubator.
(§4) Outbred athymic (nu/nu) female mice (“Chrls:Athymic Nude-nu”, Charles River Laboratories, Wilmington, Mass.) were anesthetized with ip injections of Ketamine/Xylazine (150 mg/kg, and 12 mg/kg body weight, respectively). For the subcutaneous implantation an 11-gauge trocar containing one or two hollow fibers was inserted through an incision made with scissors at the nape of the neck of an animal, and fibers were released by retracting the trocar while depressing the plunger. This procedure was repeated until all four hollow fibers were implanted. One wound clip was used to close the skin incision. After the surgery each animal received a single, subcutaneous injection of 0.4 mg/kg butorphenol to relieve any potential pain. Animals recovered from the anesthesia on a heating pad, before returning to their cages. […]

[2] = system: MIP 101 colon carcinoma; assay: as above; parameters: species or system human; conditions: for Experiment #1 % T/C ± SEM / Experiment #2 % T/C ± SEM: MIP 101 hollow fibers s.c., day 7, Paclitaxel 15 mg/kg i.v. daily for 5 days, Ex. 1 45 mg/kg i.v. once; for Average % T/C: MIP 101 hollow fibers, average of experiments #1 and #2
From the text: as §1, §2, §3, §4

[3] = system: 1A9PTX22 ovarian carcinoma; assay: as above; parameters: species or system human; conditions: for Experiment #1 % T/C ± SEM / Experiment #2 % T/C ± SEM: 1A9PTX22 hollow fibers s.c., day 7, Paclitaxel 15 mg/kg i.v. daily for 5 days, Ex. 1 45 mg/kg i.v. once; for Average % T/C: 1A9PTX22 hollow fibers, average of experiments #1 and #2
From the text: as §1, §2, §3, §4

[4] = system: 1A9 ovarian carcinoma; assay: as above; parameters: species or system human
From the text: as §1, §2, §3, §4

[5] = system: 1A9PTX22 cell line; conditions: 1A9PTX22 vs parental 1A9; cited from earlier work
[6] = 1A9 hollow fibers s.c., day 7, Paclitaxel 15 mg/kg i.v. daily for 5 days, Ex. 1 45 mg/kg i.v. once
[7] = 1A9 hollow fibers, average of experiments #1 and #2

SMILES	Experiment #1 % T/C ± SEM [1]	Experiment #2 % T/C ± SEM [1]	Average % T/C [1]	Experiment #1 % T/C ± SEM [2]	Experiment #2 % T/C ± SEM [2]	Average % T/C [2]	Experiment #1 % T/C ± SEM [3]	Experiment #2 % T/C ± SEM [3]	Average % T/C [3]	Experiment #2 % T/C ± SEM ([4]; 1A9 hollow fibers s.c., day 7, Ex. 1 45 mg/kg i.v. once)	Experiment #1 % T/C ± SEM [4, 6]	Average % T/C [4, 7]	Experiment #2 regression (Reg.) ([4]; 1A9 hollow fibers s.c., day 7, Paclitaxel 15 mg/kg i.v. daily for 5 days, regression = (1−Mean T/Mean T0)×100%)	Average regression (Reg.) [4, 7]	Resistance to paclitaxel of 1A9PTX22 relative to parental 1A9 [5]
C=C/C=C\[C@H](C)[C@H](OC(N)=O)[C@@H](C)[C@@H](O)[C@@H](C)C/C(C)=C\[C@H](C)[C@@H](O)[C@@H](C)/C=C\[C@@H](O)C[C@H](O)[C@H](C)[C@H](O)[C@@H](C)C(=O)[O-].[Na+] [Ex. 1, (2R,3S,4S,5S,7S,8Z,10S,11S,12S,13Z,16S,17S,18S,19S,20S,21Z)-19-[(aminocarbonyl)oxy]-3,5,7,11,17-pentahydroxy-2,4,10,12,14,16,18,20-octamethyl-8,13,21,23-tetracosatetraenoic acid, sodium salt]	15 ± 4 %	10 ± 3 %	13%	50 ± 9 %	90 ± 9%	70%	6 ± 2 %	16 ± 7 %	11%	23 ± 8 %	14 ± 4 %	19%			
CC(=O)O[C@H]1C(=O)[C@@]2(C)[C@H]([C@H](OC(=O)c3ccccc3)[C@]3(O)C[C@H](OC(=O)[C@H](O)[C@@H](NC(=O)c4ccccc4)c4ccccc4)C(C)=C1C3(C)C)[C@]1(OC(C)=O)CO[C@@H]1C[C@@H]2O [paclitaxel]	2 ± 1 %	1 ± 2 %	1%	113 ± 10%	112 ± 11%	113%	109 ± 16%	84 ± 8%	97%		1 ± 3 %		53% Reg.**	26% Reg.	24 fold

— patent publication US6734177B2, “Certain salts of discodermolide acid, pharmaceutical compositions containing them and their use in treating tumors” (Novartis AG, priority 2001, dated 2004)
